# From the supplement of paper PMC10307832
# Tests used:
# Test in all cases: relative viability (nuclei count vs DMSO), 5 days (fraction); higher = more cells survive
# MLN4924 + Olaparib = compound: NS(=O)(=O)OC[C@@H]1C[C@@H](n2ccc3c(N[C@H]4CCc5ccccc54)ncnc32)C[C@@H]1O [MLN4924] + O=C(c1cc(Cc2n[nH]c(=O)c3ccccc23)ccc1F)N1CCN(C(=O)C2CC2)CC1 [Olaparib] (partner 8 µM)
# Procedure, shortened: (§1)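 After 5 days of treatment, lung cancer cells in 1536-well plates were fixed and stained in a single step (final 0.05% Triton X-100, 1% formaldehyde, 1 ug/ml Hoechst) and their nuclei counted on 4× images. Treatment had been applied by pin tool the day after seeding as one drug alone or as a fixed anchor-drug dose with five library-drug doses (not always all listed) in √10 steps. Relative viability is the nuclei count of treated wells divided by that of vehicle wells, and values are medians of duplicate plates.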
# MLN4924 + Tozasertib = compound: NS(=O)(=O)OC[C@@H]1C[C@@H](n2ccc3c(N[C@H]4CCc5ccccc54)ncnc32)C[C@@H]1O [MLN4924] + Cc1cc(Nc2cc(N3CCN(C)CC3)nc(Sc3ccc(NC(=O)C4CC4)cc3)n2)n[nH]1 [Tozasertib] (partner 0.1 µM)
# Procedure, shortened: as §1
# Carboplatin + Vorinostat = compound: C1CC(C1)(C(=O)O)C(=O)O.[NH2-].[NH2-].[Pt+2] [Carboplatin] + O=C(CCCCCCC(=O)Nc1ccccc1)NO [Vorinostat] (partner 1 µM)
# Procedure, shortened: as §1
# Carboplatin + Pemetrexed = compound: C1CC(C1)(C(=O)O)C(=O)O.[NH2-].[NH2-].[Pt+2] [Carboplatin] + Nc1nc2[nH]cc(CCc3ccc(C(=O)N[C@@H](CCC(=O)O)C(=O)O)cc3)c2c(=O)[nH]1 [Pemetrexed] (partner 0.2 µM)
# Procedure, shortened: as §1
Cell Line,relative viability (MLN4924 + Olaparib; first compound 0.04 µM),relative viability (MLN4924 + Olaparib; first compound 0.1265 µM),relative viability (MLN4924 + Olaparib; first compound 0.4 µM),relative viability (MLN4924 + Olaparib; first compound 1.265 µM),relative viability (MLN4924 + Olaparib; first compound 4 µM),relative viability (MLN4924 + Tozasertib; first compound 0.04 µM),relative viability (MLN4924 + Tozasertib; first compound 0.1265 µM),relative viability (MLN4924 + Tozasertib; first compound 0.4 µM),relative viability (MLN4924 + Tozasertib; first compound 1.265 µM),relative viability (MLN4924 + Tozasertib; first compound 4 µM),relative viability (Carboplatin + Vorinostat; first compound 0.08 µM),relative viability (Carboplatin + Vorinostat; first compound 0.253 µM),relative viability (Carboplatin + Vorinostat; first compound 0.8 µM),relative viability (Carboplatin + Vorinostat; first compound 2.53 µM),relative viability (Carboplatin + Vorinostat; first compound 8 µM),relative viability (Carboplatin + Pemetrexed; first compound 0.08 µM),relative viability (Carboplatin + Pemetrexed; first compound 0.253 µM),relative viability (Carboplatin + Pemetrexed; first compound 0.8 µM),relative viability (Carboplatin + Pemetrexed; first compound 2.53 µM),relative viability (Carboplatin + Pemetrexed; first compound 8 µM)
LU99A,0.18,0.136,0.16,0.108,0.0968,0.251,0.244,0.224,0.178,0.165,0.507,0.577,0.485,0.418,0.292,0.174,0.157,0.188,0.18,0.16
NCI-H1299,0.912,0.667,0.416,0.201,0.172,–,–,–,–,–,–,–,–,–,–,–,–,–,–,–
NCI-H1355,0.688,0.516,0.525,0.306,0.186,0.549,0.553,0.576,0.3,0.204,0.745,0.673,0.648,0.655,0.559,1.06,1.1,1.09,1,0.892
HCC-15,0.318,0.164,0.159,0.106,0.0825,0.266,0.167,0.129,0.0769,0.0852,0.923,0.904,0.859,0.743,0.558,0.228,0.228,0.216,0.232,0.22
LXF-289,0.919,0.429,0.381,0.132,0.0927,0.194,0.162,0.155,0.083,0.0804,0.788,0.787,0.775,0.793,0.713,0.981,0.998,0.902,0.895,0.744
201T,0.832,0.589,0.548,0.225,0.267,1.07,0.737,0.697,0.301,0.319,1.06,0.948,0.995,0.962,0.926,0.362,0.343,0.344,0.36,0.327
HOP-62,0.205,0.303,0.0801,0.0633,0.0555,0.359,0.198,0.0852,0.049,0.0903,0.654,0.662,0.635,0.664,0.542,0.416,0.328,0.332,0.328,0.308
NCI-H1703,0.332,0.174,0.156,0.145,0.135,–,–,–,–,–,–,–,–,–,–,–,–,–,–,–
NCI-H1975,0.706,0.948,0.829,0.498,0.213,0.675,0.836,0.796,0.451,0.241,0.783,0.711,0.579,0.534,0.656,0.297,0.266,0.277,0.298,0.268
NCI-H2023,0.397,0.221,0.12,0.0617,0.0657,0.35,0.31,0.171,0.0719,0.0659,0.628,0.733,0.434,0.299,0.11,0.248,0.209,0.196,0.15,0.152
EBC-1,0.558,0.259,0.134,0.0918,0.115,–,–,–,–,–,–,–,–,–,–,–,–,–,–,–
COR-L23,0.32,0.331,0.199,0.124,0.114,0.207,0.205,0.181,0.122,0.0744,0.588,0.446,0.36,0.262,0.149,0.188,0.202,0.192,0.193,0.198
NCI-H1793,0.833,0.964,0.991,0.297,0.194,0.337,0.356,0.368,0.252,0.168,0.884,0.796,0.62,0.682,0.745,1.1,0.908,0.918,0.866,0.93
A549,0.349,0.28,0.0869,0.045,0.0539,–,–,–,–,–,–,–,–,–,–,–,–,–,–,–
CAL-12T,0.667,0.538,0.249,0.17,0.13,0.325,0.365,0.262,0.237,0.167,0.606,0.768,0.733,0.802,0.891,1.21,1.34,1.13,1.12,1.14
NCI-H1993,0.776,0.481,0.652,0.422,0.426,0.489,0.478,0.51,0.449,0.498,0.801,0.809,0.8,0.712,0.522,0.684,0.568,0.513,0.67,0.608
